The record followed here is patent US12479847B2 (DANA-FARBER CANCER INSTITUTE, INC., priority 2019, dated 2025).

What all share (test): KINOMEscan (ScanMAX) kinase profiling
Common to all, as to format: binding

The target in test [1] is T1, panel of 468 kinases (Homo sapiens, UniProt O14965).
T1 construct: purchased KINOMEscan (ScanMAX) service
T1 sequence (O14965 1-403): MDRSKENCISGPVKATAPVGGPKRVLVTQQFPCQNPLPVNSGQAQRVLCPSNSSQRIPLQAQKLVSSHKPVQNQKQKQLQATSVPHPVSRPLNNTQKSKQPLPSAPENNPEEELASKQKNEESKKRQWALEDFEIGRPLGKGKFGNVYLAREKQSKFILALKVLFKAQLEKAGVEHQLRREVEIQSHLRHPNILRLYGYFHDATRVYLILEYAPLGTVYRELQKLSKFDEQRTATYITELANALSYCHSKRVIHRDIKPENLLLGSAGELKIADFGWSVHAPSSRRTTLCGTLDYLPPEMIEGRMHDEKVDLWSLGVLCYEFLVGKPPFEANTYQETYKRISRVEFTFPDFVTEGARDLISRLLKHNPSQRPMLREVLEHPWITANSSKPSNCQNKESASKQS
As to conditions: AURKA; 1 μM; read-out: % control.

Test [2] addresses T2, panel of 468 kinases (Homo sapiens, UniProt O95382).
T2 construct: purchased KINOMEscan (ScanMAX) service
T2 sequence (O95382 1-1288): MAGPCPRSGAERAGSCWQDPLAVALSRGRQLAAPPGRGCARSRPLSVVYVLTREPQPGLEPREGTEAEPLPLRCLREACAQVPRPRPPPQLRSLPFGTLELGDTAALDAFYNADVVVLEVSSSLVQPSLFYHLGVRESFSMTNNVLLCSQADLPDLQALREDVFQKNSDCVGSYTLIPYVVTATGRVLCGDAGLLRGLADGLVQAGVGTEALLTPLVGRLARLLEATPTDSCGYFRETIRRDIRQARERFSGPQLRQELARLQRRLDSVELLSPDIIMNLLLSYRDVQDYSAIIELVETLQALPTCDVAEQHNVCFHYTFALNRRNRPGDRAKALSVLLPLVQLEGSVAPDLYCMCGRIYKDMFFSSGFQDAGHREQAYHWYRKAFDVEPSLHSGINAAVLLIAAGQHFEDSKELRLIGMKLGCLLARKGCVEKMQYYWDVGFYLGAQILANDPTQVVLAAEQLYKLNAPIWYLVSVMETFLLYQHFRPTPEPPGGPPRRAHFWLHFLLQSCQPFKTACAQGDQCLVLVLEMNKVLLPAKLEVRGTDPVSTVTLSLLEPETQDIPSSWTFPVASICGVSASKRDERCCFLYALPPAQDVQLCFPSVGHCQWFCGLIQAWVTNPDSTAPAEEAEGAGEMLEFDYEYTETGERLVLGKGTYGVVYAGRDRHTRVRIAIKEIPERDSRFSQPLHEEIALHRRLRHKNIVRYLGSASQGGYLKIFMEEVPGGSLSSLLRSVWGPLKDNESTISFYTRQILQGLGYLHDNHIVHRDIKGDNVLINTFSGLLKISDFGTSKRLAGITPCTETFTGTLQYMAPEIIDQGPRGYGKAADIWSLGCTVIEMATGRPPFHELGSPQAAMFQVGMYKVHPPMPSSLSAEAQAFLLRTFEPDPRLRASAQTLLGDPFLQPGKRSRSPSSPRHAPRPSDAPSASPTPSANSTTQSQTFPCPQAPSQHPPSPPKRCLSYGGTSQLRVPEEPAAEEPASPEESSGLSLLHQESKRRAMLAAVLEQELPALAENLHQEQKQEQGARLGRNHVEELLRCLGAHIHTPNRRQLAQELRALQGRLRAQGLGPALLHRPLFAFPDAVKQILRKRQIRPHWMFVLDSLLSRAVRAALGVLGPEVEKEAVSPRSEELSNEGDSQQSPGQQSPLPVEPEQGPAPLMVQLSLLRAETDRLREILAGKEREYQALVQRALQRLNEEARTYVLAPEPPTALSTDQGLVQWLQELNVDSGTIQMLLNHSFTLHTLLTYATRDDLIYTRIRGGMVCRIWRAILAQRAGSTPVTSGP
The following applies: ASK2; 1 μM; read-out: % control.

The target in test [3] is T3, panel of 468 kinases (Homo sapiens, UniProt P42336, E542K).
T3 construct: purchased KINOMEscan (ScanMAX) service
T3 sequence (P42336 whole entry E542K): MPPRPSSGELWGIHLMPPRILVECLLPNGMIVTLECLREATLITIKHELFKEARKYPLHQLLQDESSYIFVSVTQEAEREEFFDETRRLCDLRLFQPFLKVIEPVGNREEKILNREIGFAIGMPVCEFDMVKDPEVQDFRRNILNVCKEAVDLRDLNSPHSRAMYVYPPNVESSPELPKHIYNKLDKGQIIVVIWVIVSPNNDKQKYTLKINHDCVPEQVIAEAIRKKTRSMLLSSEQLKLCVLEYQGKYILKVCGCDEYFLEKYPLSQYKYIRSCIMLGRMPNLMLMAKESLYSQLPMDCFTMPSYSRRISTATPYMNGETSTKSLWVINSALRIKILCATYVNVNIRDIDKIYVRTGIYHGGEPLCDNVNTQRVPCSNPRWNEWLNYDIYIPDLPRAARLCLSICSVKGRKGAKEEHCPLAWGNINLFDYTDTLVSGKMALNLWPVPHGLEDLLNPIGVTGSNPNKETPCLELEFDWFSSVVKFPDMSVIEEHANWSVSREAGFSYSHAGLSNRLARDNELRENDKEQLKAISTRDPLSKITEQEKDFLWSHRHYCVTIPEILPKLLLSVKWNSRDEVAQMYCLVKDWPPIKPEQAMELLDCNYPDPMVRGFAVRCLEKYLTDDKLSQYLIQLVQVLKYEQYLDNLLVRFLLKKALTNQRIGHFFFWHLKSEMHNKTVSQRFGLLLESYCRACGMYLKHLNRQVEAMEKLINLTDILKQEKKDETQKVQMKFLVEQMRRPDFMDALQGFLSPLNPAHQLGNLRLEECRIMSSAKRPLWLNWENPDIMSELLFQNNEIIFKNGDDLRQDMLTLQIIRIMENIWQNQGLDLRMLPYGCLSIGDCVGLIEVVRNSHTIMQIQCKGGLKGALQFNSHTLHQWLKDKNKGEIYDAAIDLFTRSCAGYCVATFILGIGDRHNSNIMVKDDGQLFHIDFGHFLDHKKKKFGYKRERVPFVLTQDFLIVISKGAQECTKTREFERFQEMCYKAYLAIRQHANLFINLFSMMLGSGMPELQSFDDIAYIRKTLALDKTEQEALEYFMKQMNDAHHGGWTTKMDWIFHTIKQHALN
As to conditions: PIK3CA(E542K); 1 μM; read-out: % control.

Test [4] has as its target T4, panel of 468 kinases (Homo sapiens, UniProt P42684).
T4 construct: purchased KINOMEscan (ScanMAX) service
The following applies: ABL2; 1 μM; read-out: % control.

T4 sequence (P42684 whole entry): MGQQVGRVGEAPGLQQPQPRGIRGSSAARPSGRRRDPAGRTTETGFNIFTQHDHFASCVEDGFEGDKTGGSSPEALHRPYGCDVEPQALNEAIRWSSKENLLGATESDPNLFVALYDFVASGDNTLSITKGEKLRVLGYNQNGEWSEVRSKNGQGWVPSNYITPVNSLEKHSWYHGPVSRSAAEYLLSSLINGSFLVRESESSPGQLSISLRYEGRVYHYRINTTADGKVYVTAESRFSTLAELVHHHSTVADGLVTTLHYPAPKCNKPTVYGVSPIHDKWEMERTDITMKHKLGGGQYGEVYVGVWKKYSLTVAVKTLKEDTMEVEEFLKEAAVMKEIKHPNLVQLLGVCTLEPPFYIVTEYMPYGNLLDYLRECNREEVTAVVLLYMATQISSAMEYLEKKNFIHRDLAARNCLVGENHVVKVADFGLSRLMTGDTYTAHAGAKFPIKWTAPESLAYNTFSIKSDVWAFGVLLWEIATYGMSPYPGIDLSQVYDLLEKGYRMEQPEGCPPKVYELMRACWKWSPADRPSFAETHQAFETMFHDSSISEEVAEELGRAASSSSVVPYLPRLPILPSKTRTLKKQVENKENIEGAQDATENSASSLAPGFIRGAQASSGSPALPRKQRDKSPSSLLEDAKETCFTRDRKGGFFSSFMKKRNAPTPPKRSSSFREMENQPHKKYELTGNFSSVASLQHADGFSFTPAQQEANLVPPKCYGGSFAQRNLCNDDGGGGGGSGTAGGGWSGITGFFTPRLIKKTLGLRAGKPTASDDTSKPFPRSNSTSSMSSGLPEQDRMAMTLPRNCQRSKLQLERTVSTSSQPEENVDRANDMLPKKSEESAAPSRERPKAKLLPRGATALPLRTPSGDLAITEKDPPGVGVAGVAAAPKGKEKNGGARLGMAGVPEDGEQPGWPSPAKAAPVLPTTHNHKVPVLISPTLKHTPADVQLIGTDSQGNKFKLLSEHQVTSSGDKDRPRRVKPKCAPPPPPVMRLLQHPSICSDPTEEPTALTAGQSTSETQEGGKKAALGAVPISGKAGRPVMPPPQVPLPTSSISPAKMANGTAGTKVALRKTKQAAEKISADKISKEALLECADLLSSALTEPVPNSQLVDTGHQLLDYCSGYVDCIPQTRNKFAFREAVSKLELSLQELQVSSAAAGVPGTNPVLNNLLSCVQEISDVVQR

As to `CNc1nc(Nc2ccc(S(=O)(=O)N3CCC(N4CCOCC4)CC3)cc2OC)nc2[nH]cc(Cl)c12` [Compound 12, 5-chloro-N2-(2-methoxy-4-((4-morpholinopiperidin-1-yl)sulfonyl)phenyl)-N4-methyl-7H-pyrrolo[2,3-d]pyrimidine-2,4-diamine], the remaining binding at 1 µM stood at 93% in test [1], 53% in test [2], 65% in test [3] and 78% in test [4].
For the molecule `CNc1nc(Nc2ccc(C(=O)N3CCC(N4CCOCC4)CC3)c3c2OCO3)nc2[nH]cc(Cl)c12` [Compound 75, (7-((5-chloro-4-(methylamino)-7H-pyrrolo[2,3-d]pyrimidin-2-yl)amino)benzo[d][1,3]dioxol-4-yl)(4-morpholinopiperidin-1-yl)methanone], the remaining binding at 1 µM in test [1] was 45%; in test [2] it was 39%; in test [3], 78%; in test [4] it was 100%.
For `CNc1nc(Nc2ccc(P3(=O)CCN(C4CCOCC4)CC3)cc2OC)nc2[nH]cc(Cl)c12` [Compound 77, 4-(4-((5-chloro-4-(methylamino)-7H-pyrrolo[2,3-d]pyrimidin-2-yl)amino)-3-methoxyphenyl)-1-(tetrahydro-2H-pyran-4-yl)-1,4-azaphosphinane 4-oxide], in that order: 85%, 51%, 67% and 100%.
